According to US20240327364A1, “THERAPEUTIC TARGETING OF GPR68 TO INDUCE FERROPTOSIS” (University Of Maryland, Baltimore, priority 2023, published 2024):

What was measured:
GPR103 = target: T1, GPR103 (Homo sapiens, UniProt Q96P65); assay: GPCR Profiler; assay type: cell-based
T1 construct: host or cells: Chem-1 cells expressing Gα15

FGFR1 = target: T2, FGFR1 (Homo sapiens, UniProt P11362); assay: KinomeScan; assay type: binding; conditions: read-out: % Control
T2 construct: purchased DiscoveRx (Fremont, CA)
T2 sequence (P11362 22-822): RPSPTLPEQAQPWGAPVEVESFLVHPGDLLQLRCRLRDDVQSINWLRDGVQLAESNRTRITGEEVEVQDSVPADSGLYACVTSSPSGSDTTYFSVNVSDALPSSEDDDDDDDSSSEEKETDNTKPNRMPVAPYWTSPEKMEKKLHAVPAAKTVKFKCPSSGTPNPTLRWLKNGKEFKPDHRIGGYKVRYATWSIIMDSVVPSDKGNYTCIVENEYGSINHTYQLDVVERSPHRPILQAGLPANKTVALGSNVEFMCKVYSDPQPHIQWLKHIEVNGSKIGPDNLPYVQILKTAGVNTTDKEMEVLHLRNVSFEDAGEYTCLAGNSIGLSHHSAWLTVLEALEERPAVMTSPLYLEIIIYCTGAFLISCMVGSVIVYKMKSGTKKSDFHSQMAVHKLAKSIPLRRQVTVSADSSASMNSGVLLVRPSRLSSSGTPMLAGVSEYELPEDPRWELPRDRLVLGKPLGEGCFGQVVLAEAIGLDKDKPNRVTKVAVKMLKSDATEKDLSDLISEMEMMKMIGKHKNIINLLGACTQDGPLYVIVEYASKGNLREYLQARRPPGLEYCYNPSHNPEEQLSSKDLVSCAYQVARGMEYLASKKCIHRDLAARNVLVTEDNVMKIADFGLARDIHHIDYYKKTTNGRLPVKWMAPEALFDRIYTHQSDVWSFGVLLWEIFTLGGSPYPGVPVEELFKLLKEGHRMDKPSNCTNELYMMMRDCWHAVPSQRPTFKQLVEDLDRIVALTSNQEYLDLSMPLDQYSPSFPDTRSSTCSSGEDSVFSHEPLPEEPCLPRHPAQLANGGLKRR

MrgD = target: T3, MrgD (Homo sapiens, UniProt Q8TDS7); assay: GPCR Profiler; assay type: cell-based
T3 construct: host or cells: Chem-1 cells expressing Gα15
T3 sequence (Q8TDS7 whole entry, species assumed): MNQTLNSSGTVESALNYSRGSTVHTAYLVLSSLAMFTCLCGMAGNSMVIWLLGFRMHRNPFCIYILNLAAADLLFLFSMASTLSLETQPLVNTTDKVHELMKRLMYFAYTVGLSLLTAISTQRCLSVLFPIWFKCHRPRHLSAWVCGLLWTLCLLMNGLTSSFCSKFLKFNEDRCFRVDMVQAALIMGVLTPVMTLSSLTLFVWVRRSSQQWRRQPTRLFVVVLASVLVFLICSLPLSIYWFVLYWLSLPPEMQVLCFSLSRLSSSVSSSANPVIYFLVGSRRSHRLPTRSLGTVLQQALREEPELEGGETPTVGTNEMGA

CAMK2A = target: T4, CAMK2A (Homo sapiens, UniProt Q9UQM7); assay: KinomeScan; assay type: binding; conditions: read-out: % Control
T4 construct: purchased DiscoveRx (KinomeScan service)
T4 sequence (Q9UQM7 whole entry): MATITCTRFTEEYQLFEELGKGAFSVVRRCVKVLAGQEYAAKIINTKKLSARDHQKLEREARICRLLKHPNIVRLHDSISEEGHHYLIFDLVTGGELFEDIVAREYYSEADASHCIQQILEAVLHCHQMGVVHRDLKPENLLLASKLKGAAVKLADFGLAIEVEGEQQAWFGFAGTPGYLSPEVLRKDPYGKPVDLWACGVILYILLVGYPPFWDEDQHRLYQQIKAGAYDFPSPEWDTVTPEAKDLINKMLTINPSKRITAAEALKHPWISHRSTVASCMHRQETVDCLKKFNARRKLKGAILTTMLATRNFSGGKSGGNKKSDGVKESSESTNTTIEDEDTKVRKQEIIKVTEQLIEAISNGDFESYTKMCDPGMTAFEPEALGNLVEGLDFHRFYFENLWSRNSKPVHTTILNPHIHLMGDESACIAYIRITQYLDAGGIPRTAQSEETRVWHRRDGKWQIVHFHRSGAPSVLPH

ARK5 = target: T5, ARK5 (Homo sapiens, UniProt O60285); assay: KinomeScan; assay type: binding; conditions: read-out: % Control
T5 construct: purchased DiscoveRx (Fremont, CA)
T5 sequence (O60285 whole entry): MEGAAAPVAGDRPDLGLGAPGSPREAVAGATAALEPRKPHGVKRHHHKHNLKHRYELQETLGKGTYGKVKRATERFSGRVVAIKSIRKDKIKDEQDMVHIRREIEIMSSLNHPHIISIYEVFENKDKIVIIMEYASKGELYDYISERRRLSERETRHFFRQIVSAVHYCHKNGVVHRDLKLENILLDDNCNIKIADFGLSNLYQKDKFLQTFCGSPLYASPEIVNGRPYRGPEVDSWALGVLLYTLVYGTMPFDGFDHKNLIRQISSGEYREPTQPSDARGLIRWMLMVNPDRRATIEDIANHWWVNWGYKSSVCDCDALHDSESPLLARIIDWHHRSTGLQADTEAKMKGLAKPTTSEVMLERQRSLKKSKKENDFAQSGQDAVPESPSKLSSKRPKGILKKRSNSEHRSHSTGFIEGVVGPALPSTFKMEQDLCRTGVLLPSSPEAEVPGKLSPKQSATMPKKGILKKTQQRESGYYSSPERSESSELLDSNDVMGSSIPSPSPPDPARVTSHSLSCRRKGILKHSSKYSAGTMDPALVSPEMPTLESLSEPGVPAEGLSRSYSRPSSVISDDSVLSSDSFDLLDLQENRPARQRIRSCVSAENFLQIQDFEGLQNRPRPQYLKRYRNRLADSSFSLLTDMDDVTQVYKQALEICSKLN

BTK = target: T6, BTK (Homo sapiens, UniProt Q06187); assay: KinomeScan; assay type: binding; conditions: read-out: % Control
T6 construct: purchased DiscoveRx (KinomeScan service)

PFCDPK1(P. falciparum) = target: T7, PFCDPK1(P. falciparum) (Plasmodium falciparum, UniProt P62344); assay: KinomeScan; assay type: binding; conditions: read-out: % Control
T7 construct: purchased DiscoveRx (Fremont, CA)

MKNK2 = target: T8, MKNK2 (Homo sapiens, UniProt Q9HBH9); assay: KinomeScan; assay type: binding; conditions: read-out: % Control
T8 construct: purchased DiscoveRx

[1] = target: T9, RPS6KA4(Kin.Dom.2-C-terminal) (Homo sapiens, UniProt O75676); assay: KinomeScan; assay type: binding; conditions: read-out: % Control
T9 construct: RPS6KA4(Kin.Dom.2-C-terminal); purchased DiscoveRx (Fremont, CA)

MAP4K2 = target: T10, MAP4K2 (Homo sapiens, UniProt Q12851); assay: KinomeScan; assay type: binding; conditions: read-out: % Control
T10 construct: purchased DiscoveRx (Fremont, CA)

KIT(V559D, T670I) = target: T11, KIT(V559D, T670I) (Homo sapiens, UniProt P10721, T670I/V559D); assay: KinomeScan; assay type: binding; conditions: read-out: % Control
T11 construct: purchased DiscoveRx

CCK2 = target: T12, CCK2 (Homo sapiens, UniProt P32239); assay: GPCR Profiler; assay type: cell-based
T12 construct: host or cells: Chem-1 cells with promiscuous Gα15
T12 sequence (P32239 whole entry): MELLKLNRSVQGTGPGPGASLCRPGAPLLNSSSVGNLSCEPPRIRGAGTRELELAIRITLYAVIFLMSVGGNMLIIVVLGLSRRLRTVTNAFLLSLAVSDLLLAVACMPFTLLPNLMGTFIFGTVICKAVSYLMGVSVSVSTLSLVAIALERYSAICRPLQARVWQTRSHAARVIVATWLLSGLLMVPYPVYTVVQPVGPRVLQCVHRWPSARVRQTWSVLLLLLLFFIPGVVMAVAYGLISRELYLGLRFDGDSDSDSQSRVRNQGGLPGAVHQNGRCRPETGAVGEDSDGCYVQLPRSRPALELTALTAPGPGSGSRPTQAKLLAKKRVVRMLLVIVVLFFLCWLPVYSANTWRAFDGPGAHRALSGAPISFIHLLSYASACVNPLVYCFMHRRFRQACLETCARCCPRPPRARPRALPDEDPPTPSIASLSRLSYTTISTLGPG

PIK3CA(C420R) = target: T13, PIK3CA(C420R) (Homo sapiens, UniProt P42336, C420R); assay: KinomeScan; assay type: binding; conditions: read-out: % Control
T13 construct: purchased DiscoveRx (Fremont, CA)

MARK1 = target: T14, MARK1 (Homo sapiens, UniProt Q9P0L2); assay: KinomeScan; assay type: binding; conditions: read-out: % Control
T14 construct: purchased DiscoveRx (Fremont, CA)

RIPK4 = target: T15, RIPK4 (Homo sapiens, UniProt P57078); assay: KinomeScan; assay type: binding; conditions: read-out: % Control
T15 construct: purchased DiscoveRx (Fremont, CA)

[2] = target: T16, RSK1(Kin.Dom.2-C-terminal) (Homo sapiens, UniProt Q15418); assay: KinomeScan; assay type: binding; conditions: read-out: % Control
T16 construct: RSK1(Kin.Dom.2-C-terminal); purchased DiscoveRx (Fremont, CA)

[3] = target: T17, ABL1(F317I)-phosphorylated (Homo sapiens, UniProt P00519, F317I); assay: KinomeScan; assay type: binding; conditions: read-out: % Control
T17 construct: purchased DiscoveRx

MST3 = target: T18, MST3 (Homo sapiens, UniProt Q9Y6E0); assay: KinomeScan; assay type: binding; conditions: read-out: % Control
T18 construct: purchased DiscoveRx

5-HT2B = target: T19, 5-HT2B (Homo sapiens, UniProt P41595); assay: GPCR Profiler; assay type: cell-based
T19 construct: host or cells: Chem-1 cells with promiscuous Gα15
T19 sequence (P41595 whole entry): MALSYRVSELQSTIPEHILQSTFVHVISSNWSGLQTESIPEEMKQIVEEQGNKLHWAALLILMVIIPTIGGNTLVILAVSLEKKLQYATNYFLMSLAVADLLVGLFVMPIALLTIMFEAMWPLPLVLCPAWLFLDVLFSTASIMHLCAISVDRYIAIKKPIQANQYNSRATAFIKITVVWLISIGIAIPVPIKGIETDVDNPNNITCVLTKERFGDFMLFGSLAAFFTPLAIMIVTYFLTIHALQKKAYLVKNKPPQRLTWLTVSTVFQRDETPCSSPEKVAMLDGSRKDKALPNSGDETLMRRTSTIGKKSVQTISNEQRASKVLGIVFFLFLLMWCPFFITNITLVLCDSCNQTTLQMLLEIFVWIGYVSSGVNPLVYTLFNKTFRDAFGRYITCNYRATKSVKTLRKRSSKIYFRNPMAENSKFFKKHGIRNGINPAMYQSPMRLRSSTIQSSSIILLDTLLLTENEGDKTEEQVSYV

TRKB = target: T20, TRKB (Homo sapiens, UniProt Q16620); assay: KinomeScan; assay type: binding; conditions: read-out: % Control
T20 construct: purchased DiscoveRx (Fremont, CA)

[4] = target: T21, JAK1(JH2domain-pseudokinase) (Homo sapiens, UniProt P23458); assay: KinomeScan; assay type: binding; conditions: read-out: % Control
T21 construct: JAK1(JH2domain-pseudokinase); purchased DiscoveRx (Fremont, CA)

PRKD3 = target: T22, PRKD3 (Homo sapiens, UniProt O94806); assay: KinomeScan; assay type: binding; conditions: read-out: % Control
T22 construct: purchased DiscoveRx (Fremont, CA)

MYLK2 = target: T23, MYLK2 (Homo sapiens, UniProt Q9H1R3); assay: KinomeScan; assay type: binding; conditions: read-out: % Control
T23 construct: purchased DiscoveRx

FGFR2 = target: T24, FGFR2 (Homo sapiens, UniProt P21802); assay: KinomeScan; assay type: binding; conditions: read-out: % Control
T24 construct: purchased DiscoveRx (Fremont, CA)

YANK1 = target: T25, YANK1 (Homo sapiens, UniProt Q8WU08); assay: KinomeScan; assay type: binding; conditions: read-out: % Control
T25 construct: purchased DiscoveRx

ACVR1 = target: T26, ACVR1 (Homo sapiens, UniProt Q04771); assay: KinomeScan; assay type: binding; conditions: read-out: % Control
T26 construct: purchased DiscoveRx

TAOK1 = target: T27, TAOK1 (Homo sapiens, UniProt Q7L7X3); assay: KinomeScan; assay type: binding; conditions: read-out: % Control
T27 construct: purchased DiscoveRx (Fremont, CA)

CDK9 = CDK9 (Homo sapiens, UniProt P50750); assay: KinomeScan; assay type: binding; conditions: read-out: % Control
CAMKK1 = target: T28, CAMKK1 (Homo sapiens, UniProt Q8N5S9); assay: KinomeScan; assay type: binding; conditions: read-out: % Control
T28 construct: purchased DiscoveRx (KinomeScan service)
T28 sequence (Q8N5S9 whole entry): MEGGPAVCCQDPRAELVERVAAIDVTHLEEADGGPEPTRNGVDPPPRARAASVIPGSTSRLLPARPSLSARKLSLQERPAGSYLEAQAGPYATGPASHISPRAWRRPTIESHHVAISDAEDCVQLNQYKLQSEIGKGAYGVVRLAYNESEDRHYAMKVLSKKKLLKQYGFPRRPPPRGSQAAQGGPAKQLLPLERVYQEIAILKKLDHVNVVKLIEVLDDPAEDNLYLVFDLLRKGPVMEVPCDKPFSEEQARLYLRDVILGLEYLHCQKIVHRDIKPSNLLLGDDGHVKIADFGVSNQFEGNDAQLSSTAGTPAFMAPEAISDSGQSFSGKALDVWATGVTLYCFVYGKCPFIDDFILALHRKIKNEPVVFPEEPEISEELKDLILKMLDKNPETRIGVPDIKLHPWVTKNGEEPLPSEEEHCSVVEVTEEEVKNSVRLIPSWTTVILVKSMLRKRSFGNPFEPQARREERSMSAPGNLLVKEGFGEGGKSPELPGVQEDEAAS

EPHB2 = target: T29, EPHB2 (Homo sapiens, UniProt P29323); assay: KinomeScan; assay type: binding; conditions: read-out: % Control
T29 construct: purchased DiscoveRx (Fremont, CA)

GnRH = target: T30, GnRH (Homo sapiens, UniProt P30968); assay: GPCR Profiler; assay type: cell-based
T30 construct: host or cells: Chem-1 cells expressing Gα15
T30 sequence (P30968 whole entry): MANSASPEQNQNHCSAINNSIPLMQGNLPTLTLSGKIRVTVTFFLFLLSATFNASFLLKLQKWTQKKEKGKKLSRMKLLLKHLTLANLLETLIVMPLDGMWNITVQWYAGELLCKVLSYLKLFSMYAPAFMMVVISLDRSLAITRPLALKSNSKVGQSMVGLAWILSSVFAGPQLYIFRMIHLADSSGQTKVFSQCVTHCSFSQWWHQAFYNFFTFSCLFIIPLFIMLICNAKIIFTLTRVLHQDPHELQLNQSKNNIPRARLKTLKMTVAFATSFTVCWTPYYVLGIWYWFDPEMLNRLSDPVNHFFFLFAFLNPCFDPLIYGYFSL

S1P3 = target: T31, S1P3 (Homo sapiens, UniProt Q99500); assay: GPCR Profiler; assay type: cell-based
T31 construct: host or cells: Chem-1 cells with Gα15
T31 sequence (Q99500 whole entry, species assumed): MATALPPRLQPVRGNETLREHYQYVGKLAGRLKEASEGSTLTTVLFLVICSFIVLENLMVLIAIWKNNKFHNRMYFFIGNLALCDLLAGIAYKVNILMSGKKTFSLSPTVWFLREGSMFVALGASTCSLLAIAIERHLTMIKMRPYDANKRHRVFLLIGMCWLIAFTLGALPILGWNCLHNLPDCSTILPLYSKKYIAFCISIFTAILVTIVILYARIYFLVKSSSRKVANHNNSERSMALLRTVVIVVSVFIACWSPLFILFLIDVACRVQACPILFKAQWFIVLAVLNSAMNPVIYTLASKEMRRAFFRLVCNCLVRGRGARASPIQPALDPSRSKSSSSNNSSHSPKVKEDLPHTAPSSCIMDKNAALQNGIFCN

TNK1 = target: T32, TNK1 (Homo sapiens, UniProt Q13470); assay: KinomeScan; assay type: binding; conditions: read-out: % Control
T32 construct: purchased DiscoveRx (Fremont, CA)

DYRK1B = target: T33, DYRK1B (Homo sapiens, UniProt Q9Y463); assay: KinomeScan; assay type: binding; conditions: read-out: % Control
T33 construct: purchased DiscoveRx (Fremont, CA), KinomeScan service

IKK-alpha = target: T34, IKK-alpha (Homo sapiens, UniProt O15111); assay: KinomeScan; assay type: binding; conditions: read-out: % Control
T34 construct: purchased DiscoveRx (Fremont, CA)

T1 sequence (Q96P65 whole entry): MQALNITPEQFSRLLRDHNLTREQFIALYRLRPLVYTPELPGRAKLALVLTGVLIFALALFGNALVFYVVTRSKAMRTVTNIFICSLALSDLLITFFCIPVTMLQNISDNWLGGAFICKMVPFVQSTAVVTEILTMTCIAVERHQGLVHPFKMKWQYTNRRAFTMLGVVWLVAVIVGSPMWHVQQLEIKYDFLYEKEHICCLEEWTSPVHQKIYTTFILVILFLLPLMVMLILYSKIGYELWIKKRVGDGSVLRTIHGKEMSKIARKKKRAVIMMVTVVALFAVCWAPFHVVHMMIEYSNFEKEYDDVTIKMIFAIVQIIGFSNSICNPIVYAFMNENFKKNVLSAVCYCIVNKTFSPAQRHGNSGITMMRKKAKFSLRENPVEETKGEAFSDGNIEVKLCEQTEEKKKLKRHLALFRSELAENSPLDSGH

## CCc1ccc2c(c1)C1(NN=C(c3cccc4ccccc34)S1)C(=O)N2 (centres unmarked) [OGM1, 5-ethyl-5′-naphthalen-1-ylspiro[1H-indole-3,2′-3H-1,3,4-thiadiazole]-2-one]
GPR103; 10 uM
  Antagonism: −7
GPR103; 12.5 uM
  Agonism: −0.1
FGFR1
  remaining binding at 10 µM: 100%
MrgD; 10 uM
  Antagonism: −2.2
MrgD; 12.5 uM
  Agonism: −0.1
CAMK2A
  remaining binding at 10 µM: 75%
ARK5
  remaining binding at 10 µM: 80%
BTK
  remaining binding at 10 µM: 88%
PFCDPK1(P. falciparum)
  remaining binding at 10 µM: 95%
MKNK2
  remaining binding at 10 µM: 91%
[1]
  remaining binding at 10 µM: 74%
MAP4K2
  remaining binding at 10 µM: 83%
KIT(V559D, T670I)
  remaining binding at 10 µM: 77%
CCK2; 10 uM
  Antagonism: 14.9
CCK2; 12.5 uM
  Agonism: −0.4
PIK3CA(C420R)
  remaining binding at 10 µM: 100%
MARK1
  remaining binding at 10 µM: 100%
RIPK4
  remaining binding at 10 µM: 81%
[2]
  remaining binding at 10 µM: 73%
[3]
  remaining binding at 10 µM: 82%
MST3
  remaining binding at 10 µM: 61%
5-HT2B; 10 uM
  Antagonism: 0.3
5-HT2B; 12.5 uM
  Agonism: −0.1
TRKB
  remaining binding at 10 µM: 51%
[4]
  remaining binding at 10 µM: 100%
PRKD3
  remaining binding at 10 µM: 100%
MYLK2
  remaining binding at 10 µM: 100%
FGFR2
  remaining binding at 10 µM: 100%
YANK1
  remaining binding at 10 µM: 100%
ACVR1
  remaining binding at 10 µM: 100%
TAOK1
  remaining binding at 10 µM: 83%
CDK9
  remaining binding at 10 µM: 98%
CAMKK1
  remaining binding at 10 µM: 86%
EPHB2
  remaining binding at 10 µM: 100%
GnRH; 10 uM
  Antagonism: −2.6
GnRH; 12.5 uM
  Agonism: 0.5
S1P3; 10 uM
  Antagonism: −3.7
S1P3; 12.5 uM
  Agonism: 0.2
TNK1
  remaining binding at 10 µM: 100%
DYRK1B
  remaining binding at 10 µM: 58%
IKK-alpha
  remaining binding at 10 µM: 83%
